Results from article PMC7531004, “Discovery of gramicidin A analogues with altered activities by multidimensional screening of a one-bead-one-compound library” (Nature Communications, 2020).
Where a SMILES comes first, the peptide text is derived from it. [ ]: non-standard residue; d: D form. The star is where a group is joined. NHCH2CH2OH = OCCN*; For = O=C*

What was measured:
[1] = H+/Na+ transport assay of bead-derived peptides (one-point); assay type: biochemical; parameters: key: relative activity; mean of two control wells = 1.00; settings: bead-derived peptide solution, EYPC/EYPG LUVs;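 note: relative to parent gramicidin A activity set to 1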
In short: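 H+/Na+ transport is monitored through pyranine fluorescence in freshly extruded LUVs after a 30-min room-temperature vortex with each library peptide at a single concentration. Signals are normalized to detergent (Triton X-100) and untreated controls.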

[2] = cell viability/%
In short: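 P388 cells at 1 × 10^4 cells/mL (final) were exposed to library peptides (stocks diluted 250-fold in RPMI1640/10% FBS) for 92 h at 37 °C, 5% CO2. Viable cells were counted by WST-1/1-methoxy PMS (4 h), absorbance 415 nm, and expressed as cell viability (%).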

[3] = system: Streptococcus pyogenes SSI-9; assay: Antibacterial activity assay of bead-derived peptides (three concentrations); assay type: cell-based; parameters: key: +++: inhibition by the 640-fold diluted peptide solution; ++: inhibition by the 160-fold diluted solution; +: inhibition by the 40-fold diluted solution; -: no inhibition; settings: S. pyogenes, bead-derived peptide solution, three concentrations
In short: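 Undiluted, 4-fold and 16-fold DMSO-diluted peptide stocks; S. pyogenes SSI-9, 2 × 10^5 CFU, cation-adjusted MHB (50 mg/L Ca2+, 25 mg/L Mg2+) + 5% laked horse blood; 37 °C, 18 h; readout = cell pellet visible or not.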

| Structure (SMILES) | H+/Na+ transport activity normalized against the value of 1 (1.00) [1] | viability [2] | antibacterial activity [3] |
| --- | --- | --- | --- |
| CNC(=O)C[C@@H](NC(=O)[C@H](C)NC(=O)CNC(=O)[C@@H](NC=O)C(C)C)C(=O)N[C@@H](C)C(=O)N[C@H](CC(C)C)C(=O)N[C@H](C(=O)N[C@@H](C(=O)N[C@@H](Cc1c[nH]c2ccccc12)C(=O)N[C@H](CC(C)C)C(=O)N[C@@H](Cc1c[nH]c2ccccc12)C(=O)N[C@H](CC(C)C)C(=O)N[C@@H](Cc1c[nH]c2ccccc12)C(=O)N[C@H](CC(C)C)C(=O)N[C@@H](Cc1c[nH]c2ccccc12)C(=O)NCCO)C(C)C)C(C)C [compound 8038] (For-VGA[dD](NHMe)A[dL]V[dV]W[dL]W[dL]W[dL]W-NHCH2CH2OH) | 1.04 | 100% | - |
| CNC(=O)C[C@@H](NC(=O)[C@H](Cc1c[nH]c2ccccc12)NC(=O)[C@H](NC(=O)[C@H](Cc1c[nH]c2ccccc12)NC(=O)[C@@H](CC(C)C)NC(=O)[C@@H](NC(=O)[C@H](NC(=O)[C@H](C)NC(=O)[C@H](NC(=O)[C@H](C)NC(=O)CNC(=O)[C@@H](NC=O)C(C)C)C(C)C)C(C)C)C(C)C)C(C)C)C(=O)N[C@@H](Cc1c[nH]c2ccccc12)C(=O)N[C@@H](C(=O)N[C@@H](Cc1c[nH]c2ccccc12)C(=O)NCCO)C(C)C [compound 3369] (For-VGA[dV]A[dV]V[dL]W[dV]W[dD](NHMe)W[dV]W-NHCH2CH2OH) | 1.00 | 100% | - |
| CC(C)C[C@@H](NC(=O)[C@H](C)NC(=O)[C@H](NC(=O)[C@H](C)NC(=O)CNC(=O)[C@@H](NC=O)C(C)C)[C@H](C)O)C(=O)N[C@H](C(=O)N[C@@H](C(=O)N[C@@H](Cc1c[nH]c2ccccc12)C(=O)N[C@H](CC(C)C)C(=O)N[C@@H](Cc1c[nH]c2ccccc12)C(=O)N[C@@H](C(=O)N[C@@H](Cc1c[nH]c2ccccc12)C(=O)N[C@H](CC(C)C)C(=O)N[C@@H](Cc1c[nH]c2ccccc12)C(=O)NCCO)C(C)C)C(C)C)C(C)C [compound 10313] (For-VGA[dT]A[dL]V[dV]W[dL]W[dV]W[dL]W-NHCH2CH2OH) | 1.11 | 100% | - |
| CC(C)C[C@@H](NC(=O)[C@H](Cc1c[nH]c2ccccc12)NC(=O)[C@H](NC(=O)[C@@H](NC(=O)[C@H](NC(=O)[C@H](C)NC(=O)[C@H](NC(=O)[C@H](C)NC(=O)CNC(=O)[C@@H](NC=O)C(C)C)C(C)C)C(C)C)C(C)C)C(C)C)C(=O)N[C@@H](Cc1c[nH]c2ccccc12)C(=O)N[C@H](CC(C)C)C(=O)N[C@@H](Cc1c[nH]c2ccccc12)C(=O)N[C@@H](C(=O)N[C@@H](Cc1c[nH]c2ccccc12)C(=O)NCCO)[C@H](C)O [compound 4603] (For-VGA[dV]A[dV]V[dV]W[dL]W[dL]W[dT]W-NHCH2CH2OH) | 1.12 | 100% | ++ |
| CC(C)C[C@@H](NC(=O)[C@H](C)NC(=O)[C@H](NC(=O)[C@H](C)NC(=O)CNC(=O)[C@@H](NC=O)C(C)C)[C@H](C)O)C(=O)N[C@H](C(=O)N[C@H](CC(C)C)C(=O)N[C@@H](Cc1c[nH]c2ccccc12)C(=O)N[C@@H](C(=O)N[C@@H](Cc1c[nH]c2ccccc12)C(=O)N[C@@H](C(=O)N[C@@H](Cc1c[nH]c2ccccc12)C(=O)N[C@H](CC(C)C)C(=O)N[C@@H](Cc1c[nH]c2ccccc12)C(=O)NCCO)C(C)C)[C@H](C)O)C(C)C [compound 5532] (For-VGA[dT]A[dL]V[dL]W[dT]W[dV]W[dL]W-NHCH2CH2OH) | 1.06 | 100% | - |
| CC(C)C[C@@H](NC(=O)[C@H](C)NC(=O)[C@H](NC(=O)[C@H](C)NC(=O)CNC(=O)[C@@H](NC=O)C(C)C)C(C)C)C(=O)N[C@H](C(=O)N[C@H](CC(C)C)C(=O)N[C@@H](Cc1c[nH]c2ccccc12)C(=O)N[C@@H](C(=O)N[C@@H](Cc1c[nH]c2ccccc12)C(=O)N[C@H](CC(C)C)C(=O)N[C@@H](Cc1c[nH]c2ccccc12)C(=O)N[C@H](CC(C)C)C(=O)N[C@@H](Cc1c[nH]c2ccccc12)C(=O)NCCO)[C@H](C)O)C(C)C [compound 11400] (For-VGA[dV]A[dL]V[dL]W[dT]W[dL]W[dL]W-NHCH2CH2OH) | 1.03 | 53% | + |
| CC(C)C[C@@H](NC(=O)[C@H](Cc1c[nH]c2ccccc12)NC(=O)[C@H](NC(=O)[C@@H](NC(=O)[C@H](NC(=O)[C@H](C)NC(=O)[C@H](NC(=O)[C@H](C)NC(=O)CNC(=O)[C@@H](NC=O)C(C)C)C(C)C)C(C)C)C(C)C)[C@H](C)O)C(=O)N[C@@H](Cc1c[nH]c2ccccc12)C(=O)N[C@H](CC(C)C)C(=O)N[C@@H](Cc1c[nH]c2ccccc12)C(=O)N[C@@H](C(=O)N[C@@H](Cc1c[nH]c2ccccc12)C(=O)NCCO)C(C)C [compound 1523] (For-VGA[dV]A[dV]V[dT]W[dL]W[dL]W[dV]W-NHCH2CH2OH) | 1.04 | 100% | + |
| CNC(=O)C[C@@H](NC(=O)[C@H](Cc1c[nH]c2ccccc12)NC(=O)[C@H](NC(=O)[C@H](Cc1c[nH]c2ccccc12)NC(=O)[C@@H](CC(C)C)NC(=O)[C@H](Cc1c[nH]c2ccccc12)NC(=O)[C@@H](CC(C)C)NC(=O)[C@@H](NC(=O)[C@@H](CC(C)C)NC(=O)[C@H](C)NC(=O)[C@H](NC(=O)[C@H](C)NC(=O)CNC(=O)[C@@H](NC=O)C(C)C)C(C)C)C(C)C)C(C)C)C(=O)N[C@@H](Cc1c[nH]c2ccccc12)C(=O)NCCO [compound 7334] (For-VGA[dV]A[dL]V[dL]W[dL]W[dV]W[dD](NHMe)W-NHCH2CH2OH) | 1.11 | 94.6% | - |
| CC(C)C[C@@H](NC(=O)[C@H](C)NC(=O)CNC(=O)[C@@H](NC=O)C(C)C)C(=O)N[C@@H](C)C(=O)N[C@@H](C(=O)N[C@H](C(=O)N[C@H](CC(C)C)C(=O)N[C@@H](Cc1c[nH]c2ccccc12)C(=O)N[C@@H](C(=O)N[C@@H](Cc1c[nH]c2ccccc12)C(=O)N[C@H](CC(C)C)C(=O)N[C@@H](Cc1c[nH]c2ccccc12)C(=O)N[C@H](CC(C)C)C(=O)N[C@@H](Cc1c[nH]c2ccccc12)C(=O)NCCO)C(C)C)C(C)C)C(C)C [compound 7532] (For-VGA[dL]A[dV]V[dL]W[dV]W[dL]W[dL]W-NHCH2CH2OH) | 1.03 | 3.9% | + |
| CC(C)C[C@@H](NC(=O)[C@H](Cc1c[nH]c2ccccc12)NC(=O)[C@H](NC(=O)[C@H](Cc1c[nH]c2ccccc12)NC(=O)[C@@H](CC(C)C)NC(=O)[C@H](Cc1c[nH]c2ccccc12)NC(=O)[C@@H](CC(C)C)NC(=O)[C@@H](NC(=O)[C@H](NC(=O)[C@H](C)NC(=O)[C@H](NC(=O)[C@H](C)NC(=O)CNC(=O)[C@@H](NC=O)C(C)C)C(C)C)C(C)C)C(C)C)C(C)C)C(=O)N[C@@H](Cc1c[nH]c2ccccc12)C(=O)NCCO [compound 12432] (For-VGA[dV]A[dV]V[dL]W[dL]W[dV]W[dL]W-NHCH2CH2OH) | 1.01 | 6.4% | - |
| CC(C)C[C@@H](NC(=O)[C@H](C)NC(=O)[C@H](NC(=O)[C@H](C)NC(=O)CNC(=O)[C@@H](NC=O)C(C)C)C(C)C)C(=O)N[C@H](C(=O)N[C@H](CC(C)C)C(=O)N[C@@H](Cc1c[nH]c2ccccc12)C(=O)N[C@H](CC(C)C)C(=O)N[C@@H](Cc1c[nH]c2ccccc12)C(=O)N[C@@H](C(=O)N[C@@H](Cc1c[nH]c2ccccc12)C(=O)N[C@H](CC(C)C)C(=O)N[C@@H](Cc1c[nH]c2ccccc12)C(=O)NCCO)C(C)C)C(C)C [compound 3255] (For-VGA[dV]A[dL]V[dL]W[dL]W[dV]W[dL]W-NHCH2CH2OH) | 1.13 | 4.6% | + |
| CNC(=O)C[C@@H](NC(=O)[C@H](Cc1c[nH]c2ccccc12)NC(=O)[C@@H](CC(C)C)NC(=O)[C@H](Cc1c[nH]c2ccccc12)NC(=O)[C@@H](CC(C)C)NC(=O)[C@@H](NC(=O)[C@@H](CC(C)C)NC(=O)[C@H](C)NC(=O)[C@@H](CC(C)C)NC(=O)[C@H](C)NC(=O)CNC(=O)[C@@H](NC=O)C(C)C)C(C)C)C(=O)N[C@@H](Cc1c[nH]c2ccccc12)C(=O)N[C@@H](C(=O)N[C@@H](Cc1c[nH]c2ccccc12)C(=O)NCCO)[C@H](C)O [compound 3773] (For-VGA[dL]A[dL]V[dL]W[dL]W[dD](NHMe)W[dT]W-NHCH2CH2OH) | 1.03 | 100% | - |
| CC(C)C[C@@H](NC(=O)[C@H](C)NC(=O)[C@H](NC(=O)[C@H](C)NC(=O)CNC(=O)[C@@H](NC=O)C(C)C)C(C)C)C(=O)N[C@H](C(=O)N[C@H](CC(C)C)C(=O)N[C@@H](Cc1c[nH]c2ccccc12)C(=O)N[C@@H](C(=O)N[C@@H](Cc1c[nH]c2ccccc12)C(=O)N[C@H](CC(C)C)C(=O)N[C@@H](Cc1c[nH]c2ccccc12)C(=O)N[C@@H](C(=O)N[C@@H](Cc1c[nH]c2ccccc12)C(=O)NCCO)C(C)C)[C@H](C)O)C(C)C [compound 3260] (For-VGA[dV]A[dL]V[dL]W[dT]W[dL]W[dV]W-NHCH2CH2OH) | 1.10 | 100% | + |
